{"source": "ChEMBL document CHEMBL1158487", "about": "“Small molecule chloropyramine hydrochloride (C4) targets the binding site of focal adhesion kinase and vascular endothelial growth factor receptor 3 and suppresses breast cancer growth in vivo” (J Med Chem, 2009)", "test_system": "BT-474", "test": "Antitumor activity against human BT474 cells xenografted in nude-foxn1nu mouse assessed as reduction in tumor growth at 3 mg/kg after 14 days relative to control", "type": "functional", "set-up": "scale not given: the % may be the effect or the level left"}
{"molecule": "COc1cccc2c1C(=O)c1c(O)c3c(c(O)c1C2=O)C[C@@](O)(C(=O)CO)C[C@@H]3O[C@H]1C[C@H](N)[C@H](O)[C@H](C)O1", "note": "[DOXORUBICIN]", "values": [{"measurement": "Activity", "value": 60, "unit": "%"}]}
